Patent publication US20240148821A1, “PHARMACEUTICAL USE OF CYCLIC PEPTIDE COMPOUND” (CHUGAI SEIYAKU KABUSHIKI KAISHA, priority 2021, published 2024)
pIC50: −log10 of the molar value. Numbered stars: 1 amine (or outer) side, 2 acyl side, 3 side chain; on linkers, the order of the positions; unused ones are H or OH. Bridge positions count the residues as written; N and C are the ends. Square brackets hold non-standard residues; d marks the D form. Peptide text beside a SMILES is read from it. * marks the point of attachment. hPhe(3-Cl-4-CF3) = N[C@@H](CCc1ccc(C(F)(F)F)c(Cl)c1)C(=O)O; hPhe(3-F,4-CF3) = N[C@@H](CCc1ccc(C(F)(F)F)c(F)c1)C(=O)O; NMePhe(4-CF3) = CN[C@@H](Cc1ccc(C(F)(F)F)cc1)C(=O)O; X71 = O=C([C@H](CCc1ccc(C(F)(F)F)cc1F)N[*:1])[*:2]; X118 = O=C([C@H](CCc1c(F)cc(F)cc1F)N[*:1])[*:2]; 3Oxa8azabicyclo(3.2.1)octane = C1CC2COCC1N2*; NMePhe(4-Cl) = CN[C@@H](Cc1ccc(Cl)cc1)C(=O)O; NMedβ3hAla = C[C@H](CC(=O)[*:2])N(C)[*:1]; NMeGly(cPent) = CN[C@H](C(=O)O)C1CCCC1; Pro(4,4-F2) = O=C(O)[C@@H]1CC(F)(F)CN1; NMeCha = CN[C@@H](CC1CCCCC1)C(=O)O; NMeCba = CN[C@@H](CC1CCC1)C(=O)O; NMeChg = CN[C@H](C(=O)O)C1CCCCC1; NMeF = CN[C@@H](Cc1ccccc1)C(=O)O; NMeI = CC[C@H](C)[C@H](NC)C(=O)O; d(β3hL) = CC(C)C[C@@H](N)CC(=O)O; NMeE = CN[C@@H](CCC(=O)O)C(=O)O; NMeD = CN[C@@H](CC(=O)O)C(=O)O; NMeL = CN[C@@H](CC(C)C)C(=O)O; NMeV = CN[C@H](C(=O)O)C(C)C; d(β3hA) = C[C@@H](N)CC(=O)O; NMeS = CN[C@@H](CO)C(=O)O; Morpholide = C1CN(*)CCO1; NMeA = CN[C@@H](C)C(=O)O; NMeAib = CNC(C)(C)C(=O)O; Piperidide = C1CCN(*)CC1; Pyrrolidide = C1CCN(*)C1; Ac5c = NC1(C(=O)O)CCCC1; Aze = O=C(O)[C@@H]1CCN1; Sar = CNCC(=O)O; Propyl = CCC*

Each molecule was assayed against protein-protein interaction between Kras and SOS1 (biotin-tagged human Kras loaded with GDP, His-tagged human SOS1) (Homo sapiens (Human), UniProt P01116, G12D) (assay: Protein-protein interaction inhibition between Kras and SOS1 (KrasG12D-SOS PPI) using AlphaScreen). Conditions: AlphaScreen; biotin-tagged human Kras loaded with GDP, His-tagged human SOS1; read-out: KRAS G12D-SOS PPI IC50.
Format: biochemical
`CC[C@H](C)[C@@H]1NC(=O)[C@H](C)N(C)C(=O)C[C@@H](C)NC(=O)[C@H](CC(C)C)N(C)C(=O)[C@H](Cc2ccccc2)N(C)C(=O)[C@H](CC(C)C)NC(=O)[C@H](CCc2c(F)cc(F)cc2F)NC(=O)CN(C)C(=O)[C@H](Cc2ccc(Cl)cc2)N(C)C(=O)CN(C)C(=O)CN(C)C1=O` [Compound 2090] (cyclo(I[Sar][Sar][NMePhe(4-Cl)][Sar][X118]L[NMeF][NMeL][d(β3hA)][NMeA])) showed a pIC50 of 6.42.
`CC[C@H](C)[C@@H]1NC(=O)[C@H](CC(C)C)N(C)C(=O)C[C@@H](C(=O)N2CCCCC2)N(C)C(=O)[C@H](C(C)C)N(C)C(=O)C2(CCCC2)NC(=O)[C@@H]2CCCN2C(=O)[C@H](CCc2ccc(C(F)(F)F)c(Cl)c2)NC(=O)CN(C)C(=O)[C@H](CC2CCCCC2)N(C)C(=O)[C@@H]2CCN2C(=O)[C@H](CC2CCC2)N(C)C1=O` [Compound 1603] ([NMeL]I[NMeCba][Aze][NMeCha][Sar][hPhe(3-Cl-4-CF3)]P[Ac5c][NMeV][NMeD]-Piperidide; lactam N-11) was tested, and the pIC50 was 7.03.
`CC[C@H](C)[C@@H]1NC(=O)[C@H](CC(C)C)N(C)C(=O)C[C@@H](C(=O)N2CCCCC2)N(C)C(=O)[C@H](C(C)C)N(C)C(=O)C2(CCCC2)NC(=O)[C@@H]2CCCN2C(=O)[C@H](CCc2ccc(C(F)(F)F)c(Cl)c2)NC(=O)CN(C)C(=O)[C@H](CC2CCCCC2)N(C)C(=O)[C@@H]2CCN2C(=O)[C@H](Cc2ccccc2)N(C)C1=O` [Compound 1561] ([NMeL]I[NMeF][Aze][NMeCha][Sar][hPhe(3-Cl-4-CF3)]P[Ac5c][NMeV][NMeD]-Piperidide; lactam N-11) showed a pIC50 of 7.48.
Molecule `CCCOC[C@H]1C(=O)N(C)CC(=O)N[C@@H](CCc2ccc(C(F)(F)F)c(F)c2)C(=O)N2CCC[C@H]2C(=O)NC2(CCCC2)C(=O)N(C)[C@@H]([C@@H](C)CC)C(=O)N(C)[C@H](C(=O)N2C3CCC2COC3)CC(=O)N(C)[C@@H](CC(C)C)C(=O)N[C@@H]([C@@H](C)CC)C(=O)N(C)[C@@H](C)C(=O)N2CC[C@H]2C(=O)N1C` [Compound 408] ([NMeL]I[NMeA][Aze][NMeS](Propyl)[Sar][hPhe(3-F,4-CF3)]P[Ac5c][NMeI][NMeD]-{3Oxa8azabicyclo(3.2.1)octane}; lactam N-11) has a pIC50 of 7.96.
For `CC[C@H](C)[C@@H]1NC(=O)[C@H](CC(C)C)N(C)C(=O)C[C@@H](CC(C)C)NC(=O)[C@H]([C@@H](C)CC)N(C)C(=O)C2(CCCC2)NC(=O)[C@@H]2CCCN2C(=O)[C@H](CCc2ccc(C(F)(F)F)c(Cl)c2)NC(=O)CN(C)C(=O)[C@H](CC2CCCCC2)N(C)C(=O)[C@@H]2CCN2C(=O)[C@H](C)N(C)C1=O` [Compound 798] (cyclo([Ac5c][NMeI][d(β3hL)][NMeL]I[NMeA][Aze][NMeCha][Sar][hPhe(3-Cl-4-CF3)]P)), the pIC50 was 7.23.
For `CC[C@H](C)[C@@H]1NC(=O)[C@H](C)N(C)C(=O)C[C@@H](C)N(C)C(=O)[C@H](C(C)C)N(C)C(=O)C(C)(C)N(C)C(=O)[C@@H]2CCCN2C(=O)[C@H](CCc2ccc(C(F)(F)F)c(Cl)c2)NC(=O)CN(C)C(=O)[C@H](CC2CCCCC2)N(C)C(=O)[C@@H]2CCN2C(=O)[C@H](C)N(C)C1=O` [Compound 341] (cyclo([Aze][NMeCha][Sar][hPhe(3-Cl-4-CF3)]P[NMeAib][NMeV][NMedβ3hAla][NMeA]I[NMeA])), the pIC50 was 8.54.
Molecule `CC[C@H](C)[C@@H]1NC(=O)[C@H](C)N(C)C(=O)C[C@@H](C(=O)N2CCCC2)NC(=O)[C@H](CC(C)C)N(C)C(=O)[C@H](Cc2ccccc2)N(C)C(=O)[C@@H]2CCCN2C(=O)[C@H](CCc2ccc(C(F)(F)F)cc2F)NC(=O)CN(C)C(=O)[C@H](Cc2ccc(Cl)cc2)N(C)C(=O)CN(C)C(=O)CN(C)C1=O` [Compound 2096, (3S,9S,18S,21S,25S,28S,31S,34S)-31-benzyl-9-[(4-chlorophenyl)methyl]-3-[2-[2-fluoro-4-(trifluoromethyl)phenyl]ethyl]-28-isobutyl-7,10,13,16,21,22,29,32-octamethyl-18-[(1S)-1-methylpropyl]-25-(pyrrolidine-1-carbonyl)-1,4,7,10,13,16,19,22,26,29,32-undecazabicyclo[32.3.0]heptatriacontane-2,5,8,11,14,17,20,23,27,30,33-undecone] ([NMeA]I[Sar][Sar][NMePhe(4-Cl)][Sar][X71]P[NMeF][NMeL]D-Pyrrolidide; lactam N-11) has a pIC50 of 7.72.
Work on `CC[C@H](C)[C@@H]1NC(=O)[C@H](CC(C)C)N(C)C(=O)C[C@@H](C(=O)N2CCOCC2)N(C)C(=O)[C@H](C2CCCC2)N(C)C(=O)C2(CCCC2)NC(=O)[C@H](CCC(=O)N2CCCC2)N(C)C(=O)[C@H](CCc2ccc(C(F)(F)F)c(Cl)c2)NC(=O)CN(C)C(=O)[C@H](CC2CCCCC2)N(C)C(=O)[C@@H]2CCN2C(=O)[C@H](C)N(C)C1=O` [Compound 2104] ([NMeL]I[NMeA][Aze][NMeCha][Sar][hPhe(3-Cl-4-CF3)][NMeE](Pyrrolidide)[Ac5c][NMeGly(cPent)][NMeD]-Morpholide; lactam N-11) yielded a pIC50 of 8.00.
`CC[C@H](C)[C@@H]1NC(=O)[C@H](CC(C)C)N(C)C(=O)C[C@@H](C)N(C)C(=O)[C@H](C2CCCCC2)N(C)C(=O)C2(CCCC2)NC(=O)[C@@H]2CC(F)(F)CN2C(=O)[C@H](CCc2ccc(C(F)(F)F)c(Cl)c2)NC(=O)CN(C)C(=O)[C@H](Cc2ccc(C(F)(F)F)cc2)N(C)C(=O)[C@@H]2CCN2C(=O)[C@H](C)N(C)C1=O` [Compound 319] (cyclo([Ac5c][NMeChg][NMedβ3hAla][NMeL]I[NMeA][Aze][NMePhe(4-CF3)][Sar][hPhe(3-Cl-4-CF3)][Pro(4,4-F2)])) gave a pIC50 of 8.09.
